In this assay the test system is bone marrow stromal cells (BMSCs). Briefly: Transwell migration assay of BMSCs. It is filed as cell-based, mouse. On the procedure:
The macrophage culture, co-cultures with apoptosis mimicking structures, and co-cultures with the control microspheres were also used in transwell assays to determine in vitro bone marrow stromal cell migration. Bone marrow stromal cells (BMSCs) were derived from bone marrow flush, and were cultured in α-MEM medium (20% FBS, Pen/Strep, glutamine) for one time (passage) after isolation.
Cell migration was assessed in 24-well plate transwells (Corning, Inc.) with a diameter of 6.5 mm and a pore size of 8 μm coated with 0.2 mg/mL collagen type I (EMD Millipore). BMSCs were placed in the upper chambers. Conditioned media from the macrophage culture, the co-cultures, or α-MEM medium (a negative control) containing CCL-2 protein and 0.2% FBS were added to the lower chambers. After 8 hours, cells were fixed with 2.5% glutaraldehyde for 15 minutes. Cells which remained on top of transwell membranes were removed with cotton swabs. Cells that had migrated through the pores to the lower surface were stained with Gill's Hematoxylin (Sigma-Aldrich). Four fields at 200× magnification were selected at random, photo micrographic images were obtained (shown in FIG. 15C), and the cells in each image were counted (results shown in FIG. 15D).
Different concentrations of recombinant CCL-2 were also examined for increasing BMSC migration.

Consider “CCL-2: recombinant C-C motif chemokine ligand 2 protein”, for which the “increase of BMSCs migration compared with the control medium” value (concentration of 10 ng/ml) is recorded as “about 70%”. Moreover, the “further increase in BMSCs migration” value (concentration up to 100 ng/ml) is “did not cause further increase”.

These data come from US12544393B2, “Apoptosis-mimicking structures for inducing tissue regeneration” (THE REGENTS OF THE UNIVERSITY OF MICHIGAN, priority 2017, dated 2026).
